“Also recorded” adds a separate entry of the source.
What was measured:
[1] = tested on: HESCs (H1); assay: Embryoid body formation from HESCs; assay type: cell-based, human
Procedure: Embryoid body (EB) formation. HESCs were harvested by using dispase (Invitrogen), plated on non-tissue culture treated dishes (approximately 10^7 cells/10 cm dish), and grown in non-conditioned medium for 7 d as described before (Sato et al., 2003, Molecular signature of human embryonic stem cells and its comparison with the mouse. Dev Biol 260, 404-413). The number of EBs was determined by counting EBs in 20 different fields at a low magnification (10×) using an Axiovert microscope (Zeiss). Experiments were repeated at least three times, and the average number as well as standard deviation were calculated. For the detection of differentiated derivatives by immunocytochemistry, EBs (day 7) were plated on collagen-coated 12-well plates to allow them to adhere, grown in DMEM containing 10% FBS to induce further differentiation for 7 d and fixed in 4% paraformaldehyde followed by immunostaining as shown below.
RT-PCR. Two μg of total RNA extracted from EBs (day 7) or mouse embryonic fibroblasts was reverse-transcribed using ThermoScript RT-PCR system (Invitrogen) according to the manufacturer's protocol. One μl of cDNA sample was PCR amplified with each gene-specific primers (shown below) using optimized PCR cycles to obtain amplified reactions in a linear range.

[2] = tested on: CJ-GFP cells (MESCs); assay: Low-density culture of CJ-GFP MESCs without LIF, morphology; assay type: cell-based, mouse; conditions: 1 μM; 7 d plus 5 d at low density; data not shown for Me analogue
Procedure: Teratoma formation. We grew CJ-GFP cells at a low density (500 cells/cm^2) on gelatin-coated 10 cm dishes in medium containing 6-bromoindirubin-3′-oxime 1 μM for 7 d, then passaged cells at the same density and cultured under the same condition another 5 d to further enforce differentiation of cells.

[3] = tested on: HESCs (H1, BGN1); assay: Feeder-free culture of HESCs, undifferentiated morphology; assay type: cell-based, human; conditions: feeder-free, non-conditioned medium; 7 d; 6-bromoindirubin-3′-oxime and Me analogue 2 μM, LiCl 5 mM, Wnt3a protein
Procedure: (§1) Cell culture. Human embryonic stem cells (HESCs) lines were provided by WiCell Research Institute (H1 line)^5 and BresaGen Inc. (BGN1 and BGN2 lines). H1 cells were cultivated on irradiated mouse embryonic fibroblasts (MEFs) in medium consisting of 80% DMEM/F12 medium, 20% knockout serum replacement (KSR), 1 mM L-glutamine, 1% non-essential amino acids, 0.1 mM β-mercaptoethanol, and 4 ng/ml basic FGF (all from Invitrogen). […] Subsequently, HESCs were cultured on Matrigel (BD biosciences) in medium conditioned by MEFs, and passaged several times until colonies became free from contaminating MEFs as described before^9.

[4] = tested on: Oct-3/4; assay: Oct-3/4 immunocytochemistry in HESCs; assay type: cell-based, human
Procedure: as §1
Immunofluorescence. Cells were fixed in 4% paraformaldehyde for 20 min at room temperature and incubated overnight at 4° C. with primary antibodies against Oct-4 (BD Biosciences), β-catenin (BD Biosciences), Tuj-1 (BAbCO), cytokeratin (Sigma), glial fibrillary acidic protein, GFAP, (Dako), smooth muscle actin (Research Diagnostics Inc), α-fetoprotein (α-FP, Cell Sciences) and Tromal (Developmental Studies Hybridoma Bank). For nuclear localization analysis, the fixed samples were subjected to fluorescent digital confocal imaging analysis using a Zeiss LSM 510 confocal microscope (Carl Zeiss). For mouse embryonic tissue sections, mid gestation embryos were fixed in 4% paraformaldehyde followed by paraffin embedding and tissue sectioning. After deparaffinization, tissue sections were incubated with a GFP-specific antibody (Molecular Probe) at 4° C. overnight. Antigens were localized by using goat anti-mouse IgG conjugated to Cy3 or goat anti-rabbit IgG conjugated to Cy2 (Zymed laboratories). For the quantitative image analysis, fluorescent images from triplicate samples were taken by the Discovery1 system (Universal Imaging Corporation). The fluorescent objects were selected by the threshold function and evaluated in five regions of each well by quantification of pixel intensities and the object size by using MetaMorph software (Universal Imaging Corporation).

[5] = tested on: Oct-3/4 and Nanog transcripts; assay: Northern analysis of HESCs; assay type: cell-based, human; conditions: 7 d
Procedure: Northern analysis. Total RNA was isolated from cells by using Qiashredder and RNAeasy mini kit (Qiagen). The extracted RNA sample was quantified by UV spectrophotometer, and qualified by the RNA Nano Lab chip (Agilent Technologies). Ten μg of total RNA was electrophoresed on 1% agarose/formaldehyde gel and transferred onto a nylon membrane (Stratagene). Probes specific for human Oct-4 and human Nanog were prepared by RT-PCR using gene specific primer pairs (shown below) and the template cDNA generated from undifferentiated H1 cells, and radio-labeled with ^32P-dCTP by Prime-it probe labeling kit (Stratagene). The membrane was hybridized with the labeled probe using Perfecthybri (Sigma) and subjected to detection by Phosphor Imager (Amersham Biosciences).

[6] = tested on: CJ-GFP cells (MESCs); assay: Blastocyst injection of treated CJ-GFP cells, chimera generation; assay type: in vivo, mouse
Procedure: Blastocyst injection. We cultured CJ-GFP cells at a low density (500 cells/cm^2) on gelatin-coated 10 cm dishes in medium containing 6-bromoindirubin-3′-oxime 1 μM for 5 d. 6-bromoindirubin-3′-oxime-treated cells (approximately 10 to 15 cells per blastocyst) were microinjected into each blastocyst and transferred into surrogate mice in the C57Bl/6 background. Mid-gestation embryos were recovered and subjected to tissue sectioning. Chimerism of live offspring was determined by evaluation of their mixed coat color.
Immunofluorescence. Cells were fixed in 4% paraformaldehyde for 20 min at room temperature and incubated overnight at 4° C. with primary antibodies against Oct-4 (BD Biosciences), β-catenin (BD Biosciences), Tuj-1 (BAbCO), cytokeratin (Sigma), glial fibrillary acidic protein, GFAP, (Dako), smooth muscle actin (Research Diagnostics Inc), α-fetoprotein (α-FP, Cell Sciences) and Tromal (Developmental Studies Hybridoma Bank). […] For the quantitative image analysis, fluorescent images from triplicate samples were taken by the Discovery1 system (Universal Imaging Corporation). The fluorescent objects were selected by the threshold function and evaluated in five regions of each well by quantification of pixel intensities and the object size by using MetaMorph software (Universal Imaging Corporation).

[7] = tested on: cyclin D1; assay: cyclin D1 immunofluorescence in HESCs; assay type: cell-based, human; conditions: HESCs (BGN2); non-CM; 6-bromoindirubin-3′-oxime 1.0 μM or Wnt3a protein 100 ng; FIG. 7
Procedure: Immunofluorescence. HESCs were grown in conditioned medium (CM), non-CM, non-CM containing Me 6-bromoindirubin-3′-oxime (1.0 μM), non-CM containing 6-bromoindirubin-3′-oxime (1.0 μM) or non-CM containing recombinant mouse Wnt3a protein (100 ng/ml, R&D systems) for 5 d. Cells were fixed in 4% paraformaldehyde for 20 min at room temperature and incubated overnight at 4° C. with primary antibodies against cyclin D1 (Santa Cruz Technology, Santa Cruz, Calif.). Antigens were localized by using goat anti-rabbit IgG conjugated to Cy3 (Zymed laboratories).

## O=C1Nc2cc(Br)ccc2/C1=C1/Nc2ccccc2/C1=N\O [6-bromoindirubin-3′-oxime]
[1]; EBs day 7, FIG. 5b
  lineage-specific markers of EBs by RT-PCR: developed into ectoderm (NeuroD and keratin), mesoderm (T gene) and endoderm (α-fetoprotein and GATA4) derivatives
[1]; EBs grown under adherent condition, FIG. 5c
  differentiation phenotype of adherent EBs by immunocytochemistry: wide variety of morphology and lineage-specific molecule expression
[1]; H1 cells after treatment, FIG. 5a
  EBs formation: at a level comparable to that seen with conditioned medium-treated cells
[2]
  colony morphology of MESCs without LIF: still formed round tight colonies
[3]
  morphology / undifferentiated phenotype of HESCs: largely retained an undifferentiated morphology
[4]; HESCs in non-conditioned medium, FIG. 4c
  Oct-3/4 expression at the cellular level: sustained Oct-3/4 expression
[4]; versus conditioned medium treatment, data not shown
  Oct-3/4 expression by quantitative imaging analysis: comparable level of Oct-3/4 expression
[5]
  Nanog transcript level: substantial level of Nanog transcripts was preserved
[5]; compared to conditioned medium-treated cells
  Oct-3/4 transcript level: substantial level of the Oct-3/4 transcript was maintained
[6]; initial assessment, new-born animals
  coat-color chimerism of live offspring: two of five new-born animals were chimeric
[6]; mid-gestation stage, immunohistochemistry, FIG. 6
  incorporation of treated cells into embryonic tissues: incorporated into several embryonic tissues
[7]
  cyclin D1 expression: upregulated; also recorded: up-regulated cyclin D1 expression
